Test results published in ChEMBL document CHEMBL1130902, “Novel angucycline compound with both antigastrin- and gastric mucosal protective-activities” (1998).

Assays:
Type in all cases: functional
Rattus norvegicus [1] = experiment: Percentage dose required to prevent lesion formation in gastric mucosa of unanesthetized rats upon intraperitoneal administration of 1 mg/kg dose in the HCl/ethanol-induced lesion model; details: ip
Rattus norvegicus [2] = experiment: Percentage dose required to prevent lesion formation in gastric mucosa of unanesthetized rats upon intraperitoneal administration of 10 mg/kg dose in the HCl/ethanol-induced lesion model; details: ip
Rattus norvegicus [3] = experiment: Percent inhibition against pentagastrin-stimulated acid secretion upon intraperitoneal administration of 10 mg/kg dose to urethane anesthetized rats.; details: ip
Rattus norvegicus [4] = experiment: Percentage dose required to prevent lesion formation in gastric mucosa of unanesthetized rats upon intraperitoneal administration 30 min prior to an oral dose of HCl/ethanol.
Rattus norvegicus [5] = experiment: Percentage dose required to prevent lesion formation in gastric mucosa of unanesthetized rats upon intraperitoneal administration of 3 mg/kg dose in the HCl/ethanol-induced lesion model; details: ip
Rattus norvegicus [6] = experiment: Dose required to prevent lesion formation in gastric mucosa of unanesthetized rats upon subcutaneous administration.

SMILES	inhibition in vivo at 1 mg/kg (Rattus norvegicus [1])	inhibition in vivo at 10 mg/kg (Rattus norvegicus [2])	inhibition in vivo at 10 mg/kg (Rattus norvegicus [3])	% dose (Rattus norvegicus [4])	inhibition in vivo at 3 mg/kg (Rattus norvegicus [5])	Dose (Rattus norvegicus [6])
CO[C@@H]1C[C@H](O[C@@H]2C=C(C)C[C@@]3(O)[C@H](OC(C)=O)[C@H](O)C4=C(C(=O)c5ccc([C@H]6C[C@@H](O[C@H]7C[C@](C)(O)[C@H](O[C@H]8CC[C@H](NC(N)=O)[C@@H](C)O8)[C@@H](C)O7)[C@H](O)[C@@H](C)O6)c(O)c5C4=O)[C@@]23O)O[C@@H](C)[C@H]1O [COMPOUND P371 A]	52.6%	83.6%	61%	60%	81.6%	–
COc1ccc2c(c1)c(CC(=O)O)c(C)n2C(=O)c1ccc(Cl)cc1 [INDOMETHACIN]	57%	72.8%	–	–	64.9%	25 mg/kg
